Source: patent publication US10509041B2, “Glucose derivative, and cell imaging method and imaging agent using said derivative” (HIROSAKI UNIVERSITY, priority 2014, dated 2019)

Columns and labels:
[1] = tested on: neuronal cells of the substantia nigra pars reticulate of the midbrain; test: Fluorescent imaging of acutely isolated normal neuronal cells; format: cell-based, mouse; settings: 3 minutes, 8 minutes after start of washout
Protocol: The whole amount of the 0.5 mg CLG vial was recovered using 0.73 mL in total of 10% DMSO and dissolved (100 μM) by addition to 14.79 ml of a HEPES solution for image acquisition according to the method described in Non Patent Literature 2. […]
150 mM NaCl, 5 mM KCl, 1 mM MgCl2, 2 mM CaCl2, and 10 mM HEPES (the pH of the solution was adjusted to 7.4 with a 1 M tris(2-amino-2-hydroxymethyl-1,3-propanediol) solution). The concentration of glucose was set to 10 mM. 0.1 mM carbenoxolone (Sigma-Aldrich, #C4790) was added thereto for the purpose of inhibiting the entrance and exit of fluorescently labeled glucose by way of gap junction/hemichannel. This HEPES solution for image acquisition was used for preparing the CLG solution and the mixed solution with the additional fluorescent sugar derivative.
Neuronal cells […] to the method described in the previous reports of the inventors (WO2010/16587 (Patent Literature 2)) and (WO2012/133688 (Patent Literature 4)) and attached to each glass cover slip coated with poly-L-lysine. Then, the glass cover slip was transferred into the HEPES solution for image acquisition in a perfusion chamber loaded on a stage of a fluorescence microscope, followed by observation.
A silicon plate of 1 mm thickness bored to have a streamline-shaped hole (10 mm wide x 35 mm long) was placed via cover glass onto an aluminum heating control platform (Warner Instruments) having a round hole (diameter: 18 mm) for an objective lens at the bottom, and allowed to be in close contact with the cover glass.
The HEPES solution for image acquisition was warmed in advance in an aluminum syringe heater and supplied to the perfusion chamber through hydrostatic pressure. The perfusion rate was adjusted to 1.3±0.2 mL/min using a flow rate adjuster. Immediately before being introduced to the perfusion chamber, the solution was rewarmed via an inline heater so that the actually measured temperature of the perfusate in an observation region in the chamber was adjusted to 32.5±1° C. The CLG/2-TRLG mixed solution was able to be supplied in the same way as above and was switched with the HEPES solution for image acquisition using an electromagnetic valve capable of controlling the opening and closing of the channel. The solution was removed using a vacuum pump capable of controlling suction pressure.
The fluorescence microscope used was NIKON ECLIPS-Ti, and images were acquired with a CCD camera Retiga 2000R.
CLG and 2-TRLG were each detected using the following filter cassette.
Excitation 360/40 nm, Dichroic mirror 400 nm, Emission 460/50 nm.
Excitation 567/15 nm, Dichroic mirror 593 nm, Emission 593 nm Long pass.
The objective lens used in this method was ×20 dry lens (Nikon Plan S Fluor). The images were acquired at 1600×1200 pixels. […]

[2] = Fluorescence spectrum (excitation and fluorescence maxima); format: physicochemical
From the text: The fluorescence spectra of CDG synthesized in (1) and QDG synthesized in (2) were compared with the fluorescence spectrum of 2-NBDLG (manufactured by Peptide Institute, Inc.).
The numeric values described above the graph denote the fluorescence maximum of CDG and QDG, respectively. It is evident that the fluorescence maximum was largely shifted to shorter wavelength as compared with the fluorescence maximum of 2-NBDLG present around 550 nm.

O=c1ccc2ccc(NC3C(O)OC(CO)[C@@H](O)[C@@H]3O)cc2o1 (stereo partly drawn) [CDG, 2-deoxy-2-(2-oxo-2H-chromen-7-yl)amino-D-glucose]
uptake into normal neuronal cells ([1]; 100 μM CDG+20 μM 2-TRLG mixed solution, 14-day-old mouse): taken into the normal neuronal cells
maximum excitation wavelength (Ex max) [2]: 366.5 nm
maximum fluorescence wavelength (Em max) [2]: 454.5 nm

O=c1ccc2ccc(NC3C(O)OC(CO)[C@H](O)[C@H]3O)cc2o1 (stereo partly drawn) [CLG, 2-deoxy-2-(2-oxo-2H-chromen-7-yl)amino-L-glucose]
uptake into normal neuronal cells ([1]; 100 μM CLG+20 μM 2-TRLG mixed solution, 21-day-old mouse): not observed
maximum excitation wavelength (Ex max) [2]: 366.5 nm
maximum fluorescence wavelength (Em max) [2]: 454.5 nm
